Data: article PMC6797808, “Fucosylated inhibitors of recently identified bangle lectin from Photorhabdus asymbiotica” (Scientific Reports, 2019)

Target: PHL (Photorhabdus asymbiotica, UniProt C7BLE4)
Assay: SPR competitive inhibition of PHL binding to α-L-fucoside sensor chip
Conditions: for IC50: 25 °C, three independent measurements; for β L-Fuc (affinity improvement factor): IC50,basic unit/(valency × IC50,ligand), basic unit L-Fuc; for PotencyL-Fuc: IC50 L-fucose / IC50 ligand; for β Azide1 (affinity improvement factor): basic unit azide 1
Experimental: To analyse the competitive inhibition of PHL binding to a multivalent surface, the surface plasmon resonance (SPR) technique was employed. A sensor chip presenting α-L-fucopyranoside residues was treated with a constant concentration of PHL, while an increasing concentration of the ligands was used to determine IC50 (Table 2, Fig. 3). […] To assess the contribution of valency to the affinity increase, an affinity improvement factor β was calculated as the relationship IC50,basic unit/(valency × IC50,ligand)[30].
Surface plasmon resonance (SPR) experiments were performed on a BIAcore T200 instrument (GE Healthcare, UK) at 25 °C, using buffer A supplemented with 0.05% Tween 20 as a running buffer. α-L-fucoside was immobilized onto CM5 sensor chip (GE Healthcare, UK) covered with a carboxymethylated dextran matrix. The sensor chip surface was activated with N-ethyl-N-(3-dimethylaminopropyl)carbodiimide/N-hydroxysuccinimide solution and then coated with streptavidin using the manufacturer’s standard protocol using HBS buffer (10 mM HEPES, 150 mM NaCl, 0.05% Tween 20, pH 7. 5). Unreacted groups were blocked with 1 M ethanolamine-HCl, pH 8.5. Biotinylated carbohydrate (biotinilated monomeric probes, Lectinity, Russia) was injected onto particular measuring channel and pure biotin on blank channel at a flow rate of 5 μl/min.
SPR inhibition measurements were carried out on measuring channel with L-fucoside at a flow rate of 5 µl/min. PHL was diluted to a concentration of 20 μg/ml by the buffer A supplemented with 0.05% Tween 20, mixed 1:1 (v/v) with various concentrations of inhibitors (500–5 μM) in the same buffer and injected onto the sensor chip. The response of lectin bound to the sugar surface at equilibrium was plotted against the concentration of inhibitor in order to determine IC50 (concentration of inhibitor resulting in 50% inhibition of binding). As IC50 is not a constant and depends on the experimental set-up, a parameter called potency was used for characterization. The potency of a tested inhibitor is the ratio of IC50 of a chosen standard inhibitor (in this case L-fucose) and the inhibitor in question. Pure PHL lectin was used as a control (0% inhibition) and channel with pure biotin served as a blank. IC50 was determined from triplicates.

Sequence of PHL (C7BLE4 entry or part of it): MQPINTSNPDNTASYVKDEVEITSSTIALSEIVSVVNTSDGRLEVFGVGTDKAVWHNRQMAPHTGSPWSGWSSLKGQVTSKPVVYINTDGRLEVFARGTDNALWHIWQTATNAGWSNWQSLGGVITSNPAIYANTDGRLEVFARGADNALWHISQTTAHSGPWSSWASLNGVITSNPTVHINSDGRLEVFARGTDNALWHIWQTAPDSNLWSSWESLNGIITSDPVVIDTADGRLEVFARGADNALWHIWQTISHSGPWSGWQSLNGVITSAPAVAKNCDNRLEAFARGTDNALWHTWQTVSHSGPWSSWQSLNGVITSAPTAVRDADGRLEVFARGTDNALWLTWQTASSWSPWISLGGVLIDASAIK

C[C@@H]1O[C@@H](CCN=[N+]=[N-])[C@@H](O)[C@H](O)[C@@H]1O [Azide 1]
IC50: 11.5 ± 1.4 µM
β L-Fuc (affinity improvement factor): 32
PotencyL-Fuc: 32
β Azide1 (affinity improvement factor): 1

C[C@@H]1O[C@@H](CCn2cc(COCC(COCc3cn(CC[C@@H]4O[C@@H](C)[C@@H](O)[C@@H](O)[C@@H]4O)nn3)(COCc3cn(CC[C@@H]4O[C@@H](C)[C@@H](O)[C@@H](O)[C@@H]4O)nn3)COCc3cn(CC[C@@H]4O[C@@H](C)[C@@H](O)[C@@H](O)[C@@H]4O)nn3)nn2)[C@@H](O)[C@H](O)[C@@H]1O [Dendrimer 8]
IC50: 0.188 ± 0.037 µM
β L-Fuc (affinity improvement factor): 481
PotencyL-Fuc: 1,922
β Azide1 (affinity improvement factor): approximately 15
PotencyAzide1 (relative to azide 1): 65
